From patent US20240150377A1, “MODULATORS OF CYSTIC FIBROSIS TRANSMEMBRANE CONDUCTANCE REGULATOR” (VERTEX PHARMACEUTICALS INCORPORATED, priority 2020, published 2024)
Read-outs that look alike come from different tables or passages of the source. Blank lines part the entries; values can stand above or below the molecule they belong to.

Molecular target: T1, CFTR (Homo sapiens, UniProt P13569, DEL508-508)
T1 construct: endogenous in cells; host or cells: primary human bronchial epithelial cells from CF subjects (F508del/MF-HBE), differentiated at air-liquid interface
Assay: HBE assay: Ussing chamber assay of CFTR-mediated short-circuit currents
Type: cell-based
Settings: for EC50: read-out: HBE EC50
Outline: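 CFTR-mediated Isc (μA/cm²) equals the peak response to apical 20 μM forskolin minus the residual after a 20 μM each BPO/GlyH-101/CFTR inhibitor 172 cocktail, recorded in Ussing chambers at Vhold 0 mV, 37 °C, pH 7.4, with 30 μM apical amiloride. Cells were F508del/MF HBE cultures preincubated 18-24 h with corrector (concentration range or 10 μM) plus 1 μM ivacaftor in 20% human serum.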

[1] = Table 13, read-out: HBE Max Activity (%)
[2] = Table 12, read-out: HBE Max Activity (%)
[3] = Table 12, at 10 μM, read-out: HBE Activity at 10 μM (%)
[4] = Table 10, at 10 μM, read-out: HBE activity at 10 (μM) (%)
[5] = Table 10, read-out: HBE Max activity (%)
[6] = HBE assay, read-out: HBE Max activity (%)
[7] = Table 13, at 10 μM, read-out: HBE Activity at 10 μM (%)
[8] = Table 11, read-out: HBE Max Activity (%)
[9] = HBE assay, 10 μM, read-out: HBE Activity at 10 μM (%)
[10] = Table 11, at 10 μM, read-out: HBE Activity at 10 μM (%)

T1 sequence (P13569 with tags, fused parts or gaps DEL508-508): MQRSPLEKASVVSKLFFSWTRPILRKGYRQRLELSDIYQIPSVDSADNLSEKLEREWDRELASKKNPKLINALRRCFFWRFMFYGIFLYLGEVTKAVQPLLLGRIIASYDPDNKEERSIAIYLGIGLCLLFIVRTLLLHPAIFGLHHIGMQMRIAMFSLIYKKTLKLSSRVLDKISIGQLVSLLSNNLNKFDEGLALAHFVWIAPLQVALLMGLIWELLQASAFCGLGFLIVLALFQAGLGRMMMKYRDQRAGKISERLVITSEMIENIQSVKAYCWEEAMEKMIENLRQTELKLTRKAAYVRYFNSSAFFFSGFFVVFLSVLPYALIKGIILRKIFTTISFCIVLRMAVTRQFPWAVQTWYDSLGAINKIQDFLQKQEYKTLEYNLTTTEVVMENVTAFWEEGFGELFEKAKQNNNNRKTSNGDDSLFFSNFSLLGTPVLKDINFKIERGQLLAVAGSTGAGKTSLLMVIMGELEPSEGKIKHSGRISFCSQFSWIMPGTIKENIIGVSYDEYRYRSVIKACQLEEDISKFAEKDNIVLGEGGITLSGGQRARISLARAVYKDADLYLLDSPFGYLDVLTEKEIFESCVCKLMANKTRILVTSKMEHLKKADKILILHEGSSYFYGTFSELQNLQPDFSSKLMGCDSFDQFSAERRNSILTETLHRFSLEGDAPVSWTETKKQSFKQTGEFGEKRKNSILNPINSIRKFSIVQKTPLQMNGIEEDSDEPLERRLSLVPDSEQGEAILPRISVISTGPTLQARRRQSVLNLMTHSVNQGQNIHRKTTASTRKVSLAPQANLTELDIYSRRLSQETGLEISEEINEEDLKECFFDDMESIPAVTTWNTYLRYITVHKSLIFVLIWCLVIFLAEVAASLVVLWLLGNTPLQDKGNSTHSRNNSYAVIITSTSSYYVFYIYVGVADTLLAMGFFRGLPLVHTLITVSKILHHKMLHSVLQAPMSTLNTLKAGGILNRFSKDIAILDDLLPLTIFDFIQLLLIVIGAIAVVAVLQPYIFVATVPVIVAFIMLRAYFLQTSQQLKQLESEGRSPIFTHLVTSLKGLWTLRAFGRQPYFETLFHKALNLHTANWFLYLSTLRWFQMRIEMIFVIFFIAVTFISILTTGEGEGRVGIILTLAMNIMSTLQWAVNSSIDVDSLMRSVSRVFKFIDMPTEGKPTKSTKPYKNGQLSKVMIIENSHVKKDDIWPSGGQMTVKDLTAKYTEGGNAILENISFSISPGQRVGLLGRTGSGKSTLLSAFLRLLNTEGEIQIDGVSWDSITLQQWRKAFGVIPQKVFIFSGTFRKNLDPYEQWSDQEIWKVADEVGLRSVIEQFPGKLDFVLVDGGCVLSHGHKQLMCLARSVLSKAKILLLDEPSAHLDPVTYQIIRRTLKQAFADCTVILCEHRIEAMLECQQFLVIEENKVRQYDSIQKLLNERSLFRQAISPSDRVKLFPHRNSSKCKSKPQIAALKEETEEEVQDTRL

Structure (SMILES): COC[C@H]1CCCN1c1cccc(CN2C(=O)c3cccc(c3)S(=O)(=O)Nc3nc(cc(-c4c(C)cccc4C)n3)OC[C@H]2CC(C)(C)C)n1 [Compound 276]
EC50 (Table 12): < 1000 nM
Emax [2]: > 60%

Structure (SMILES): COCCN(c1cncc(CN2C(=O)c3cccc(c3)S(=O)(=O)Nc3nc(cc(-c4c(C)cccc4C)n3)OC[C@H]2CC(C)(C)C)n1)C1CCCC1 [Compound 1437]
EC50 (HBE assay): < 1000 nM
Emax [6]: > 60%

Structure (SMILES): Cc1cccc(C)c1-c1cc2nc(n1)NS(=O)(=O)c1cccc(c1)C(=O)N(Cc1cc(NC(C)C)ccn1)[C@H](CC(C)(C)C)CO2 [Compound 995]
activation at 10 µM [7]: > 600%

Structure (SMILES): Cc1cccc(C)c1-c1cc2nc(n1)NS(=O)(=O)c1cccc(c1)C(=O)N(Cc1cccc(Cc3nccs3)c1)[C@H](CC(C)(C)C)CO2 [Compound 295]
EC50 (Table 10): < 1000 nM
Emax [5]: > 60%

Structure (SMILES): Cc1cccc(C)c1-c1cc2nc(n1)NS(=O)(=O)c1cccc(c1)C(=O)N(CC(=O)N1CCC[C@H](c3ccccc3)C1)[C@H](CC(C)(C)C)CO2 [Compound 195]
activation at 10 µM [7]: > 600%

Structure (SMILES): COCCOc1cnc(CN2C(=O)c3cccc(c3)S(=O)(=O)Nc3nc(cc(-c4c(C)cccc4C)n3)OC[C@H]2CC(C)(C)C)c(C)c1 [Compound 1382]
EC50 (HBE assay): < 1000 nM
Emax [6]: > 60%

Structure (SMILES): C=C(C)c1nccc(CN2C(=O)c3cccc(c3)S(=O)(=O)Nc3nc(cc(-c4c(C)cccc4C)n3)OC[C@H]2CC(C)(C)C)n1 [Compound 593]
EC50 (Table 12): < 1000 nM
Emax [2]: > 60%

Structure (SMILES): Cc1cccc(C)c1-c1cc2nc(n1)NS(=O)(=O)c1cccc(c1)C(=O)N(Cc1ncc(N(C(C)C)C(C)C)cn1)[C@H](CC(C)(C)C)CO2 [Compound 629]
EC50 (Table 11): 3000 to 30000 nM
Emax [8]: > 60%

Structure (SMILES): Cc1cccc(C)c1-c1cc2nc(n1)NS(=O)(=O)c1cccc(c1)C(=O)N(Cc1ncc(OC3CC4(CC4)C3)cn1)[C@H](CC(C)(C)C)CO2 [Compound 560]
EC50 (Table 12): < 1000 nM
Emax [2]: > 60%

Structure (SMILES): Cc1cccc(C)c1-c1cc2nc(n1)NS(=O)(=O)c1cccc(c1)C(=O)N(Cc1ccc(N3CCOCC3)nc1)[C@H](CC(C)(C)C)CO2 [Compound 60, (11R)-6-(2,6-Dimethylphenyl)-11-(2,2-dimethylpropyl)-12-[(6-morpholino-3-pyridyl)methyl]-2,2-dioxo-9-oxa-2λ^6-thia-3,5,12,19-tetrazatricyclo[12.3.1.14,8]nonadeca-1(18),4(19),5,7,14,16-hexaen-13-one]
EC50 (Table 10): < 1000 nM
Emax [5]: > 60%

Structure (SMILES): Cc1cccc(C)c1-c1cc2nc(n1)NS(=O)(=O)c1cccc(c1)C(=O)N(Cc1ncc(OC3CCC3)cn1)[C@H](CCC(C)(C)C)CO2 [Compound 1486]
activation at 10 µM [9]: > 60%

Structure (SMILES): Cc1cccc(C)c1-c1cc2nc(n1)NS(=O)(=O)c1cccc(c1)C(=O)N(Cc1ccc(C(=O)N3CCOCC3)cn1)[C@H](CC(C)(C)C)CO2 [Compound 245]
activation at 10 µM [7]: > 600%

Structure (SMILES): Cc1cccc(C)c1-c1cc2nc(n1)NS(=O)(=O)c1cccc(c1)C(=O)N(Cc1cncc(N(C)CC(C)(C)C)n1)[C@H](CC(C)C)CO2 [Compound 551]
EC50 (Table 12): < 1000 nM
Emax [2]: > 60%

Structure (SMILES): Cc1cccc(C(C)C)c1-c1cc2nc(n1)NS(=O)(=O)c1cccc(c1)C(=O)N(Cc1cnc(C3CCOCC3)cn1)[C@H](CC(C)C)CO2 [Compound 242]
activation at 10 µM [3]: > 600%

Structure (SMILES): Cc1cccc(C)c1-c1cc2nc(n1)NS(=O)(=O)c1cccc(c1)C(=O)N(CC(=O)N1CC3(CCC3)C1)[C@H](CC(C)(C)C)CO2 [Compound 170]
activation at 10 µM [7]: 30 to 60%

Structure (SMILES): Cc1cccc(C)c1-c1cc2nc(n1)NS(=O)(=O)c1cccc(c1)C(=O)N(Cc1ncc(N3CC(F)C3)cn1)[C@H](CC(C)(C)C)CO2 [Compound 1498]
activation at 10 µM [9]: > 60%

Structure (SMILES): Cc1cccc(C)c1-c1cc2nc(n1)NS(=O)(=O)c1cccc(c1)C(=O)N(Cc1cccc(N3CCC34CCCC4)n1)[C@H](CC(C)(C)C)CO2 [Compound 565]
EC50 (Table 12): < 1000 nM
Emax [2]: > 60%

Structure (SMILES): COCCN(c1cccc(CN2C(=O)c3cccc(c3)S(=O)(=O)Nc3nc(cc(-c4c(C)cccc4C)n3)OC[C@H]2CC(C)(C)C)n1)C(C)C [Compound 564]
EC50 (Table 12): < 1000 nM
Emax [2]: > 60%

Structure (SMILES): Cc1cccc(C)c1-c1cc2nc(n1)NS(=O)(=O)c1cccc(c1)C(=O)N(Cc1cccc(C(C)(C)O)n1)[C@H](CC(C)(C)C)CO2 [Compound 817]
EC50 (Table 11): < 1000 nM
Emax [8]: > 60%

Structure (SMILES): COc1cccnc1CN1C(=O)c2cccc(c2)S(=O)(=O)Nc2nc(cc(-c3c(C)cccc3C)n2)OC[C@H]1CC(C)(C)C [Compound 382]
EC50 (Table 10): < 1000 nM
Emax [5]: > 60%

Structure (SMILES): CC[C@H](C)[C@@H]1COc2cc(-c3c(C)cccc3C)nc(n2)NS(=O)(=O)c2cccc(c2)C(=O)N1Cc1ncc(OC(C)C)cn1 [Compound 1471]
EC50 (HBE assay): < 1000 nM
Emax [6]: > 60%

Structure (SMILES): Cc1cccc(C)c1-c1cc2nc(n1)NS(=O)(=O)c1cccc(c1)C(=O)N(Cc1nc(Br)ccc1F)[C@H](CC(C)(C)C)CO2 [Compound 372]
activation at 10 µM [7]: > 600%

Structure (SMILES): Cc1cccc(C)c1-c1cc2nc(n1)NS(=O)(=O)c1cccc(c1)C(=O)N(CC(=O)NC1CC3(CCC3)C1)[C@H](CC(C)(C)C)CO2 [Compound 171]
activation at 10 µM [7]: > 600%

Structure (SMILES): Cc1cccc(C)c1-c1cc2nc(n1)NS(=O)(=O)c1cccc(c1)C(=O)N(Cc1ccc(C3COC(C)(C)C3)cn1)[C@H](CC(C)(C)C)CO2 (some centres unmarked) [Compound 1062]
activation at 10 µM [7]: > 600%

Structure (SMILES): Cc1cccc(C)c1-c1cc2nc(n1)NS(=O)(=O)c1cccc(c1)C(=O)N([C@@H](C)c1ccc(-c3cn[nH]c3)cc1)[C@H](CC(C)(C)C)CO2 [Compound 287]
Emax [5]: > 60%

Now from value to molecule:

EC50 (Table 13): < 1000 nM
Emax [1]: > 60%
Structure (SMILES): Cc1cccc(C)c1-c1cc2nc(n1)NS(=O)(=O)c1cccc(c1)C(=O)N(Cc1ncc(OC(C)C)cc1Cl)[C@H](CC(C)(C)C)CO2 [Compound 691]

activation at 10 µM [3]: < 30%
EC50 (Table 12): < 1000 nM
Emax [2]: > 60%
Structure (SMILES): Cc1cccc(C)c1-c1cc2nc(n1)NS(=O)(=O)c1cccc(c1)C(=O)N(Cc1nc(C(C)C)c[nH]1)[C@H](CC(C)(C)C)CO2 [Compound 264]

activation at 10 µM [4]: > 60%
Emax [5]: > 60%
Structure (SMILES): Cc1cccc(C)c1-c1cc2nc(n1)NS(=O)(=O)c1cccc(c1)C(=O)N(Cc1ccnc(N3CCOCC3)c1)[C@H](CC(C)(C)C)CO2 [Compound 466]

EC50 (Table 10): < 1000 nM
Emax [5]: > 60%
Structure (SMILES): Cc1cccc(C)c1-c1cc2nc(n1)NS(=O)(=O)c1cccc(c1)C(=O)N(Cc1ccc(-c3cn[nH]c3)cn1)[C@H](CC(C)(C)C)CO2 [Compound 299]

activation at 10 µM [7]: > 600%
Structure (SMILES): COC(=O)c1ccc(CN2C(=O)c3cccc(c3)S(=O)(=O)Nc3nc(cc(-c4c(C)cccc4C)n3)OC[C@H]2CC(C)(C)C)nc1 [Compound 248]

EC50 (Table 12): < 1000 nM
Emax [2]: > 60%
Structure (SMILES): Cc1cccc(C)c1-c1cc2nc(n1)NS(=O)(=O)c1cccc(c1)C(=O)N(Cc1nccc(N3CCCC3(C)C)n1)[C@H](CC(C)(C)C)CO2 [Compound 587]

activation at 10 µM [10]: > 60%
EC50 (Table 11): < 1000 nM
Emax [8]: > 60%
Structure (SMILES): Cc1cccc(C)c1-c1cc2nc(n1)NS(=O)(=O)c1cccc(c1)C(=O)N(CCc1cccc(N3CCOCC3)n1)[C@H](CC(C)(C)C)CO2 [Compound 110, (11R)-6-(2,6-Dimethylphenyl)-11-(2,2-dimethylpropyl)-12-[2-(6-morpholino-2-pyridyl)ethyl]-2,2-dioxo-9-oxa-2λ^6-thia-3,5,12,19-tetrazatricyclo[12.3.1.14,8]nonadeca-1(18),4(19),5,7,14,16-hexaen-13-one]

activation at 10 µM [3]: > 600%
Structure (SMILES): Cc1cccc(C)c1-c1cc2nc(n1)NS(=O)(=O)c1cccc(c1)C(=O)N(Cc1ncc(C3CCOCC3)cc1F)[C@H](CC(C)(C)C)CO2 [Compound 521]

EC50 (Table 12): < 1000 nM
Emax [2]: > 60%
Structure (SMILES): CC(C)=Cc1nccc(CN2C(=O)c3cccc(c3)S(=O)(=O)Nc3nc(cc(-c4c(C)cccc4C)n3)OC[C@H]2CC(C)(C)C)n1 [Compound 596]

activation at 10 µM [10]: > 60%
Structure (SMILES): Cc1cccc(C)c1-c1cc2nc(n1)NS(=O)(=O)c1cccc(c1)C(=O)N(CC1OCCC1(C)C)[C@H](CC(C)(C)C)CO2 (single isomer, unassigned) [Compound 26]

EC50 (Table 12): < 1000 nM
Emax [2]: > 60%
Structure (SMILES): Cc1cccc(C)c1-c1cc2nc(n1)NS(=O)(=O)c1cccc(c1)C(=O)N(Cc1cccc(CCC(C)(C)C)n1)[C@H](CC(C)(C)C)CO2 [Compound 582]

activation at 10 µM [4]: > 60%
EC50 (Table 10): < 1000 nM
Emax [5]: > 60%
Structure (SMILES): CNc1cccc(CN2C(=O)c3cccc(c3)S(=O)(=O)Nc3nc(cc(-c4c(C)cccc4C)n3)OC[C@H]2CC(C)(C)C)n1 [Compound 490]

EC50 (Table 13): 1000 to 3000 nM
Emax [1]: > 60%
Structure (SMILES): Cc1cccc(C)c1-c1cc2nc(n1)NS(=O)(=O)c1cccc(c1)C(=O)N(Cc1ncc(N3CCC(C)(C)CC3)cc1C(F)(F)F)[C@H](CC(C)(C)C)CO2 [Compound 1139]

EC50 (HBE assay): < 1000 nM
Emax [6]: > 60%
Structure (SMILES): Cc1cccc(C)c1-c1cc2nc(n1)NS(=O)(=O)c1cccc(c1)C(=O)N(Cc1ncc(OCC(F)(F)F)cn1)[C@H](CC(C)(C)C)CO2 [Compound 1431]

EC50 (HBE assay): < 1000 nM
Emax [6]: > 60%
Structure (SMILES): CC[C@@H](C)Oc1cnc(CN2C(=O)c3cccc(c3)S(=O)(=O)Nc3nc(cc(-c4c(C)cccc4C)n3)OC[C@H]2CC2CC2)nc1 [Compound 1447]

activation at 10 µM [3]: > 600%
Structure (SMILES): Cc1cccc(C)c1-c1cc2nc(n1)NS(=O)(=O)c1cccc(c1)C(=O)N(Cc1ccc(C3CCCCC3)nn1)[C@H](CC(C)(C)C)CO2 [Compound 233]

EC50 (HBE assay): < 1000 nM
Structure (SMILES): Cc1cccc(C)c1-c1cc2nc(n1)NS(=O)(=O)c1cccc(c1)C(=O)N(Cc1cncc(N3CCCC3C(C)C)n1)[C@H](CC(C)(C)C)CO2 (some centres unmarked) [Compound 1384]
